Assay results: ChEMBL document CHEMBL1201862, “PubChem BioAssay data set” (2004)
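A five-concentration, 48-hour dose response in 96-well plates underlies each endpoint, interpolated linearly between surrounding concentrations. Here, GI50 denotes the concentration required for 50% inhibition of growth.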 Calls of active or inactive are those of the source. No stated cut-off is given here; in the data, active = GI50 up to about 1.1 µM and inactive = higher.

Columns and labels:
Experiment in all cases: NCI tumour cell line growth inhibition, 48 h
[1] = test system: A498
[2] = test system: ACHN
[3] = test system: CAKI-1
[4] = test system: CCRF-CEM
[5] = test system: HOP-62
[6] = test system: HOP-92
[7] = test system: K562
[8] = test system: LOX IMVI
[9] = test system: NCI-H23
[10] = test system: NCI/ADR-RES
[11] = test system: OVCAR-4
[12] = test system: PC-3
[13] = test system: RPMI-8226
[14] = test system: RXF 393
[15] = test system: SF-268
[16] = test system: SF-539
[17] = test system: SK-MEL-5
[18] = test system: SN12C
[19] = test system: SW-620
[20] = test system: TK-10

SMILES	GI50 [1]	GI50 [2]	GI50 [3]	GI50 [4]	GI50 [5]	GI50 [6]	GI50 [7]	GI50 [8]	GI50 [9]	GI50 [10]	GI50 [11]	GI50 [12]	GI50 [13]	GI50 [14]	GI50 [15]	GI50 [16]	GI50 [17]	GI50 [18]	GI50 [19]	GI50 [20]
CN(C)CCNC(=O)c1ccc(NCCCN(C)CCCNc2ccc3c(=O)n(CCN(C)C)c(=O)n4c5ccccc5c(=O)c2c34)c2c(O)c3ccccc3nc12	0.0759 µM (active)	< 0.01 µM (active)	0.0258 µM (active)	< 0.01 µM (active)	< 0.01 µM (active)	0.114 µM (active)	0.0324 µM (active)	< 0.01 µM (active)	< 0.0146 µM (active)	0.221 µM (active)	< 0.01 µM (active)	< 0.01 µM (active)	< 0.01 µM (active)	0.075 µM (active)	< 0.01 µM (active)	0.138 µM (active)	0.0617 µM (active)	< 0.01 µM (active)	< 0.01 µM (active)	0.0471 µM (active)
CN(C)CCn1c(=O)c2ccc(NCCCN(C)CCCNc3ccc4c(=O)n(CCN(C)C)c(=O)n5c6ccc(O)cc6c(=O)c3c45)c3c(=O)c4cc(O)ccc4n(c1=O)c23	0.0289 µM (active)	< 0.01 µM (active)	< 0.01 µM (active)	< 0.01 µM (active)	< 0.032 µM (active)	< 0.0201 µM (active)	< 0.01 µM (active)	< 0.01 µM (active)	< 0.01 µM (active)	0.181 µM (active)	< 0.01 µM (active)	< 0.01 µM (active)	< 0.01 µM (active)	< 0.0125 µM (active)	0.0481 µM (active)	< 0.01 µM (active)	< 0.01 µM (active)	< 0.01 µM (active)	< 0.01 µM (active)	< 0.0126 µM (active)
CC(C)OC(=O)c1ccc(CCc2cc(O)c(Br)cc2O)cc1	21 µM (inactive)	18 µM (inactive)	11.4 µM (inactive)	3.92 µM (inactive)	12.3 µM (inactive)	20.9 µM (inactive)	8.65 µM (inactive)	8.04 µM (inactive)	8.85 µM (inactive)	9.2 µM (inactive)	2.31 µM (inactive)	8.32 µM (inactive)	2.72 µM (inactive)	15 µM (inactive)	10.1 µM (inactive)	7.36 µM (inactive)	15.1 µM (inactive)	13.4 µM (inactive)	8.65 µM (inactive)	16.9 µM (inactive)
Brc1cccc(/C=C/CN2CCN(CCOC(c3ccccc3)c3ccccc3)CC2)c1	17.5 µM (inactive)	17.5 µM (inactive)	15.9 µM (inactive)	11.1 µM (inactive)	15.9 µM (inactive)	6 µM (inactive)	7.69 µM (inactive)	14.5 µM (inactive)	16.5 µM (inactive)	14.7 µM (inactive)	11.7 µM (inactive)	13.2 µM (inactive)	4.08 µM (inactive)	11.6 µM (inactive)	16.4 µM (inactive)	15.7 µM (inactive)	15.1 µM (inactive)	15 µM (inactive)	17.8 µM (inactive)	19.3 µM (inactive)
COC(=O)C1=C(OC(=O)/C(=C/c2ccc(Cl)cc2Cl)c2ccc(Cl)cc2Cl)C(C(=O)OC)[C@@]2(O)[C@@H](C(=O)OC)[C@H](C)C[C@@H]1[C@@H]2C(=O)OC (stereo not given in full)	> 100 µM (inactive)	> 100 µM (inactive)	> 100 µM (inactive)	88.5 µM (inactive)	> 100 µM (inactive)	22.9 µM (inactive)	> 100 µM (inactive)	> 100 µM (inactive)	> 100 µM (inactive)	> 100 µM (inactive)	> 100 µM (inactive)	7.1 µM (inactive)	> 100 µM (inactive)	61.8 µM (inactive)	> 100 µM (inactive)	> 100 µM (inactive)	> 100 µM (inactive)	> 100 µM (inactive)	> 100 µM (inactive)	> 100 µM (inactive)
COc1cc2c(cc1OCCCC(=O)Nc1cc(C(=O)Nc3cc(C(=O)Nc4cc(C(=O)NCCCN(C)C)n(C)n4)n(C)n3)n(C)n1)N=CC1CCCN1C2=O (stereo not given)	23 µM (inactive)	13.2 µM (inactive)	18.2 µM (inactive)	2.72 µM (inactive)	45.5 µM (inactive)	4.68 µM (inactive)	4.43 µM (inactive)	3.07 µM (inactive)	26.5 µM (inactive)	31.8 µM (inactive)	16.1 µM (inactive)	31.3 µM (inactive)	5.74 µM (inactive)	22.4 µM (inactive)	31.2 µM (inactive)	26.2 µM (inactive)	19.5 µM (inactive)	21.1 µM (inactive)	5.21 µM (inactive)	20.7 µM (inactive)
CCC[C@H](C)[C@H]1NC(=O)[C@@H](NC(=O)[C@@H](CC(C)C)N(C)C(=O)C2CCCN2C(=O)[C@H](C)O)[C@@H](C)OC(=O)[C@H](CC(C)C)N(C)C(=O)[C@@H]2CCCN2C(=O)[C@H](CC(C)C)NC(=O)[C@@H](C)C(=O)[C@H](C(C)C)OC(=O)C[C@@H]1O (stereo not given in full)	0.0115 µM (active)	< 0.0025 µM (active)	0.0162 µM (active)	< 0.0025 µM (active)	< 0.0025 µM (active)	< 0.0025 µM (active)	< 0.0025 µM (active)	< 0.0025 µM (active)	< 0.0025 µM (active)	0.189 µM (active)	< 0.0025 µM (active)	< 0.0025 µM (active)	< 0.0025 µM (active)	< 0.0025 µM (active)	< 0.0025 µM (active)	< 0.0025 µM (active)	< 0.0025 µM (active)	< 0.0025 µM (active)	< 0.0025 µM (active)	< 0.0025 µM (active)
